{
  "source": "patent US5126057A",
  "about": "“Disinfecting with N,N'-dihaloimidazolidin-4-ones” (Auburn Research Foundation, priority 1991, dated 1992)",
  "format_in_all_cases": "cell-based",
  "key": {"[1]": {"tested_on": "Oscillatoria lutea, Anabaena cylindrica, and Chlorella pyrenoidosa", "assay": "Prevention of the growth of algae in water by Compound 1", "method": "(§1) Two 10 gallon aquariums were each filled with 35 liters of Bristol's solution at pH 6.8 as described in example 16. To aquarium A was added 6.14 milligrams per liter total potential positive chlorine from 0.638 grams of 1,3-dichloro-2,2,5,5-tetramethylimidazolidin-4-one (Compound 1) as prepared in example 1. Aquarium B was used as a control with no halogenated compound added. Then 5 milliliters of an inoculum containing the algae Oscillatoria lutea, Anabaena cylindrica, and Chlorella pyrenoidosa with an absorbance of 0.14 at 750 nanometers was added to each aquarium. Constant aeration and illumination as described in example 16 were provided throughout the experiment. The laboratory temperature varied between 21° and 24° C. during the course of the experiment. Both aquariums were sampled periodically such that the absorption at 750 nanometers could be measured with a Milton Roy Spectronic 301 spectrophotometer. Aquarium A was also sampled for total potential positive chlorine using standard iodometric titration."}, "[2]": {"assay": "Prevention of the growth of algae in water by Compound 1", "conditions": "algal aquarium, pH 6.8, start 6.14 mg per liter, read-out: Percent Total Potential Positive Chlorine Remaining", "method": "as §1"}, "[3]": {"tested_on": "Oscillatoria lutea, Anabaena cylindrica, and Chlorella pyrenoidosa", "assay": "Algastatic effect on heavy algal growth in aquariums", "conditions": "for regrowth of algae (in words): after total elapsed time of 19 days, all titratable chlorine disappeared; for Percent Total Potential Positive Chlorine Remaining: algal aquarium; for algastatic / algacidal effect (in words): extended periods, water containing heavy algal growth; for decoloration / bleaching of algae (in words): within 2 days for Cpd 1 (9.9 mg per liter Cl+), Cpd 3 at 4.9 mg per liter", "source_text": "Two 10 gallon aquariums each containing 35 liters of Bristol's solution (described by R. C. Starr in the article \"The Culture Collection of Algae at the University of Texas\", J. Phycology, 14, 47 (1978)) at pH 6.8 were inoculated with a mixture of three species of algae; Oscillatoria lutea, Anabaena cylindrica, and Chlorella pyrenoidosa. The 2 aquariums were continually aerated and each illuminated by a 20 watt Gro-lux lamp placed 15 centimeters from the side of the aquarium. The experiment was conducted at ambient temperature which ranged between 21° and 24° C.\nAfter a 34 day growth period the heavy algal cell density was measured by direct counts using a hemacytometer. The cell density in aquarium A at this time was 2.2×10^7 cells per milliliter, while that in aquarium B was 6.6×10^6 cells per milliliter. The absorbances of the two solutions at 750 nanometers were also measured at that time and found to be 0.273 for aquarium A and 0.112 for aquarium B. The absorbance at 750 nanometers has been employed as an index of algal chlorophyll concentration (\"Standard methods for the Examination of Water and Wastewater\", 16th edition, American Public Health Association, Washington, D.C., 1985, p. 1070). Then a solution of 1.042 grams of 1,3-dichloro-2,2,5,5-tetramethylimidazolidin-4-one (Compound 1) as prepared in example 3 in 500 milliliters of demand-free water (DFW) was added to aquarium A resulting in an initial potential positive chlorine concentration of 9.9 milligrams per liter in that aquarium. Similarly a solution of 0.872 gram of 1-chloro-2,2,5,5-tetramethylimidazolidin-4-one (Compound 3) as prepared in example 6 in 500 milliliters of DFW was added to aquarium B resulting in an initial potential positive chlorine concentration of 4.9 milligrams per liter in that aquarium. The aquariums were sampled periodically and analyzed for algal growth by means of absorbance measurements at 750 nanometers using a Milton Roy Spectronic 301 spectrophotometer and for total potential positive chlorine concentration using standard iodometric titration. […] Following the loss of all total potential positive chlorine from the aquariums, second additions of 0.87 grams of Compound 3 and of 1.042 grams of Compound 1 were made to aquariums B and A, respectively."}, "[4]": {"conditions": "day 0, initial 9.9 (Cpd 1) or 4.9 (Cpd 3) mg per liter"}, "[5]": {"conditions": "day 6 (then additional 0.87 grams of Cpd 3 added), 8640 min"}, "[6]": {"conditions": "day 10 (then additional 1.042 grams of Cpd 1 added), 14400 min"}, "[7]": {"conditions": "day 0 (before addition), initial Cl+ 9.9 (Cpd 1) or 4.9 (Cpd 3) mg per liter"}, "[8]": {"conditions": "day 1, initial Cl+ 9.9 (Cpd 1) or 4.9 (Cpd 3) mg per liter"}, "[9]": {"conditions": "day 3, initial Cl+ 9.9 (Cpd 1) or 4.9 (Cpd 3) mg per liter"}, "[10]": {"conditions": "day 8, second addition of Cpd 3 at day 6"}, "[11]": {"conditions": "day 10, second addition of Cpd 3 at day 6, of Cpd 1 at day 10"}, "[12]": {"conditions": "day 19, after second additions, no titratable chlorine left"}},
  "data": [
    {"compound": "CC1(C)C(=O)N(Cl)C(C)(C)N1Cl", "note": "[Compound 1, 1,3-dichloro-2,2,5,5-tetramethylimidazolidin-4-one]", "values": [
      {"measurement": "green turbid tint (in words)", "setting": "[1]; 6.14 mg per liter Cl+, 18 day experiment", "value": "did not develop such a color at any time during the 18 day experiment"},
      {"measurement": "A750 (Absorbance at 750 Nanometers)", "setting": "[1]; 6.14 mg per liter Cl+, day 7", "value": 0.002},
      {"measurement": "A750 (Absorbance at 750 Nanometers)", "setting": "[1]; 6.14 mg per liter Cl+, day 11", "value": 0.0},
      {"measurement": "A750 (Absorbance at 750 Nanometers)", "setting": "[1]; 6.14 mg per liter Cl+, day 12", "value": 0.001},
      {"measurement": "A750 (Absorbance at 750 Nanometers)", "setting": "[1]; 6.14 mg per liter Cl+, day 13", "value": 0.0},
      {"measurement": "A750 (Absorbance at 750 Nanometers)", "setting": "[1]; 6.14 mg per liter Cl+, day 14", "value": 0.001},
      {"measurement": "A750 (Absorbance at 750 Nanometers)", "setting": "[1]; 6.14 mg per liter Cl+, day 15", "value": 0.0},
      {"measurement": "A750 (Absorbance at 750 Nanometers)", "setting": "[1]; 6.14 mg per liter Cl+, day 18", "value": 0.0},
      {"measurement": "prevention of the growth of algae (in words)", "setting": "[1]; as long as a measurable amount of the compound is present", "value": "effective at preventing the growth of algae in water"},
      {"measurement": "Percent Total Potential Positive Chlorine Remaining", "setting": "[1]; start 6.14 mg per liter, day 0", "value": 100.0, "unit": "%"},
      {"measurement": "remaining at 24 h", "setting": "[2]; day 1", "value": 70.1, "unit": "%"},
      {"measurement": "remaining at 96 h", "setting": "[2]; day 4", "value": 53.4, "unit": "%"},
      {"measurement": "remaining at 120 h", "setting": "[2]; day 5", "value": 52.1, "unit": "%"},
      {"measurement": "remaining at 144 h", "setting": "[2]; day 6", "value": 51, "unit": "%"},
      {"measurement": "remaining at 168 h", "setting": "[2]; day 7", "value": 49.5, "unit": "%"},
      {"measurement": "remaining at 192 h", "setting": "[2]; day 8", "value": 48.9, "unit": "%"},
      {"measurement": "remaining at 264 h", "setting": "[2]; day 11", "value": 45.8, "unit": "%"},
      {"measurement": "remaining at 288 h", "setting": "[2]; day 12", "value": 45.6, "unit": "%"},
      {"measurement": "remaining at 312 h", "setting": "[2]; day 13", "value": 44.8, "unit": "%"},
      {"measurement": "remaining at 336 h", "setting": "[2]; day 14", "value": 43.3, "unit": "%"},
      {"measurement": "remaining at 360 h", "setting": "[2]; day 15", "value": 44.8, "unit": "%"},
      {"measurement": "remaining at 432 h", "setting": "[2]; day 18", "value": 41.9, "unit": "%"},
      {"measurement": "time to noticeable loss of green coloration", "setting": "[3]; Cpd 1 at 9.9 mg per liter Cl+", "value": "≤ 4", "unit": "h"},
      {"measurement": "regrowth of algae (in words)", "setting": "[3]", "value": "the algae began to grow again"},
      {"measurement": "Percent Total Potential Positive Chlorine Remaining", "setting": "[3]; [4]", "value": 100.0, "unit": "%"},
      {"measurement": "Percent Total Potential Positive Chlorine Remaining", "setting": "[3]; day 1", "value": 82.9, "unit": "%"},
      {"measurement": "Percent Total Potential Positive Chlorine Remaining", "setting": "[3]; day 3", "value": 44.4, "unit": "%"},
      {"measurement": "Percent Total Potential Positive Chlorine Remaining", "setting": "[3]; [5]", "value": 13.8, "unit": "%"},
      {"measurement": "Percent Total Potential Positive Chlorine Remaining", "setting": "[3]; day 7", "value": 7.0, "unit": "%"},
      {"measurement": "Percent Total Potential Positive Chlorine Remaining", "setting": "[3]; day 8", "value": 3.4, "unit": "%"},
      {"measurement": "Percent Total Potential Positive Chlorine Remaining", "setting": "[3]; [6]", "value": 0.0, "unit": "%"},
      {"measurement": "Percent Total Potential Positive Chlorine Remaining", "setting": "[3]; day 16", "value": 34.7, "unit": "%"},
      {"measurement": "A750 (Absorbance at 750 Nanometers)", "setting": "[3]; [7]", "value": 0.273},
      {"measurement": "A750 (Absorbance at 750 Nanometers)", "setting": "[3]; [8]", "value": 0.064},
      {"measurement": "A750 (Absorbance at 750 Nanometers)", "setting": "[3]; [9]", "value": 0.081},
      {"measurement": "A750 (Absorbance at 750 Nanometers)", "setting": "[3]; [10]", "value": 0.058},
      {"measurement": "A750 (Absorbance at 750 Nanometers)", "setting": "[3]; [11]", "value": 0.038},
      {"measurement": "A750 (Absorbance at 750 Nanometers)", "setting": "[3]; day 16, after second additions", "value": 0.020},
      {"measurement": "A750 (Absorbance at 750 Nanometers)", "setting": "[3]; [12]", "value": 0.055},
      {"measurement": "algastatic / algacidal effect (in words)", "setting": "[3]", "value": "algastatic, but not algacidal"},
      {"measurement": "decoloration / bleaching of algae (in words)", "setting": "[3]", "value": "only white turbidity resulting from the bleaching of the algae"}
    ]},
    {"compound": "CC1(C)NC(=O)C(C)(C)N1Cl", "note": "[Compound 3, 1-chloro-2,2,5,5-tetramethylimidazolidin-4-one]", "values": [
      {"measurement": "regrowth of algae (in words)", "setting": "[3]", "value": "the algae began to grow again"},
      {"measurement": "Percent Total Potential Positive Chlorine Remaining", "setting": "[3]; [4]", "value": 100.0, "unit": "%"},
      {"measurement": "Percent Total Potential Positive Chlorine Remaining", "setting": "[3]; day 1", "value": 71.8, "unit": "%"},
      {"measurement": "Percent Total Potential Positive Chlorine Remaining", "setting": "[3]; day 3", "value": 31.0, "unit": "%"},
      {"measurement": "Percent Total Potential Positive Chlorine Remaining", "setting": "[3]; [5]", "value": 0.0, "unit": "%"},
      {"measurement": "Percent Total Potential Positive Chlorine Remaining", "setting": "[3]; day 7", "value": 77.3, "unit": "%"},
      {"measurement": "Percent Total Potential Positive Chlorine Remaining", "setting": "[3]; day 8", "value": 47.6, "unit": "%"},
      {"measurement": "Percent Total Potential Positive Chlorine Remaining", "setting": "[3]; [6]", "value": 17.3, "unit": "%"},
      {"measurement": "Percent Total Potential Positive Chlorine Remaining", "setting": "[3]; day 16", "value": 0.0, "unit": "%"},
      {"measurement": "A750 (Absorbance at 750 Nanometers)", "setting": "[3]; [7]", "value": 0.112},
      {"measurement": "A750 (Absorbance at 750 Nanometers)", "setting": "[3]; [8]", "value": 0.063},
      {"measurement": "A750 (Absorbance at 750 Nanometers)", "setting": "[3]; [9]", "value": 0.066},
      {"measurement": "A750 (Absorbance at 750 Nanometers)", "setting": "[3]; [10]", "value": 0.021},
      {"measurement": "A750 (Absorbance at 750 Nanometers)", "setting": "[3]; [11]", "value": 0.012},
      {"measurement": "A750 (Absorbance at 750 Nanometers)", "setting": "[3]; day 16, after second additions", "value": 0.007},
      {"measurement": "A750 (Absorbance at 750 Nanometers)", "setting": "[3]; [12]", "value": 0.010},
      {"measurement": "algastatic / algacidal effect (in words)", "setting": "[3]", "value": "algastatic, but not algacidal"},
      {"measurement": "decoloration / bleaching of algae (in words)", "setting": "[3]", "value": "a longer time period for decoloration"}
    ]}
  ]
}
